Measured values: patent US20230391763A1, “MODULATORS OF THE INTEGRATED STRESS RESPONSE PATHWAY” (Evotec International GmbH, priority 2020, published 2023)

Each compound was assayed on Tunicamycin induced ISR (ATF4 signal ratio between nucleus and cytoplasm) in wild-type HEK293 cells (assay: HEK-ATF4 High Content Imaging assay). Conditions: Homo sapiens, prevention of Tunicamycin induced ISR, 6 h incubation, ATF4 immunofluorescence nucleus/cytoplasm ratio.
Type: cell-based
Protocol: HEK-ATF4 High Content Imaging Assay
Example compounds were tested in the HEK-ATF4 High Content Imaging assay to assess their pharmacological potency to prevent Tunicamycin induced ISR. Wild-type HEK293 cells were plated in 384-well imaging assay plates at a density of 12,000 cells per well in growth medium (containing DMEM/F12, 10% FBS, 2 mM L-Glutamine, 100 U/mL Penicillin—100 μg/mL Streptomycin) and incubated at 37° C., 5% CO2. 24 h later, the medium was changed to 50 μL assay medium per well (DMEM/F12, 0.3% FBS, 2 mM L-Glutamine, 100 U/mL Penicillin—100 μg/mL Streptomycin). Example compounds were serially diluted in DMSO, spotted into intermediate plates and prediluted with assay medium containing 3.3 μM Tunicamycin to give an 11-fold excess of final assay concentration. In addition to the example compound testing area, the plates also contained multiples of control wells for assay normalization purposes, wells containing Tunicamycin but no example compounds (High control), as well as wells containing neither example compound nor Tunicamycin (Low control). The assay was started by transferring 5 μL from the intermediate plate into the assay plates, followed by incubation for 6 h at 37° C., 5% CO2. Subsequently, cells were fixed (4% PFA in PBS, 20 min at r.t.) and submitted to indirect ATF4 immunofluorescence staining (primary antibody rabbit anti ATF4, clone D4B8, Cell Signaling Technologies; secondary antibody Alexa Fluor 488 goat anti-rabbit IgG (H+L), Thermofisher Scientific). Nuclei were stained using Hoechst dye (Thermofisher Scientific), and plates were imaged on an Opera Phenix High Content imaging platform equipped with 405 nm and 488 nm excitation. Finally, images were analyzed using script based algorithms. The main readout HEK-ATF4 monitored the ATF4 signal ratio between nucleus and cytoplasm. Tunicamycin induced an increase in the overall ATF4 ratio signal, which was prevented by ISR modulating example compounds. In addition, HEK-CellCount readout was derived from counting the number of stained nuclei corresponding to healthy cells. This readout served as an internal toxicity control.
Compound `O=C(N[C@H]1CO[C@H](c2nnc(OCCOC(F)(F)F)o2)OC1)c1cnc2cc(Cl)ccc2c1` [Example 55, 7-chloro-N-[trans-2-{5-[2-(trifluoromethoxy)ethoxy]-1,3,4-oxadiazol-2-yl}-1,3-dioxan-5-yl]quinoline-3-carboxamide] has an IC50 of 1 to 500 nM. `O=C(N[C@H]1CC[C@H](c2nnc(OCCOC(F)(F)F)o2)NC1)c1cc2cc(Cl)ccn2n1` [Example 12, 5-chloro-N-[(3S,6R)-6-{5-[2-(trifluoromethoxy)ethoxy]-1,3,4-oxadiazol-2-yl}piperidin-3-yl]pyrazolo[1,5-a]pyridine-2-carboxamide] gave an IC50 of 500 to 2000 nM. With `Cn1c(C(=O)N[C@H]2CC[C@H](c3nnc(OCCOC(F)(F)F)o3)NC2)cc2ccc(C(F)(F)F)cc21` [Example 42, 1-methyl-N-[(3S,6R)-6-[5-[2-(trifluoromethoxy)ethoxy]-1,3,4-oxadiazol-2-yl]-3-piperidyl]-6-(trifluoromethyl)indole-2-carboxamide] the IC50 was 500 to 2000 nM. Compound `O=C(N[C@H]1CC[C@H](c2nnc(-c3ccc(Cl)cc3)o2)NC1)c1cnc2cc(Cl)ccc2c1` [Example 46, 7-chloro-N-[(3S,6R)-6-[5-(4-chlorophenyl)-1,3,4-oxadiazol-2-yl]-3-piperidyl]quinoline-3-carboxamide] has an IC50 of 1 to 500 nM. With `Cc1ccc(C(=O)N[C@H]2CC[C@H](c3nnc(OCCOC(F)(F)F)o3)NC2)cc1Cl` [Example 44, 3-chloro-4-methyl-N-[(3S,6R)-6-[5-[2-(trifluoromethoxy)ethoxy]-1,3,4-oxadiazol-2-yl]-3-piperidyl]benzamide] the IC50 was 500 to 2000 nM. For `O=C(N[C@H]1CC[C@H](c2nnc(OCCOC(F)(F)F)o2)NC1)c1cc2cc(Cl)ccn2c1` [Example 20, 7-chloro-N-[(3S,6R)-6-{5-[2-(trifluoromethoxy)ethoxy]-1,3,4-oxadiazol-2-yl}piperidin-3-yl]indolizine-2-carboxamide], the IC50 was 1 to 500 nM. `O=C(N[C@H]1CC[C@H](c2nnc(OCCOC(F)(F)F)o2)NC1)c1cnc2ccc(Cl)cc2c1` [Example 8, 6-chloro-N-[(3S,6R)-6-{5-[2-(trifluoromethoxy)ethoxy]-1,3,4-oxadiazol-2-yl}piperidin-3-yl]quinoline-3-carboxamide] was tested, and the IC50 was 1 to 500 nM. `O=C(N[C@H]1CC[C@H](c2nnc(OCCOC(F)(F)F)o2)NC1)c1cc2ccc(Cl)cc2cn1` [Example 5, 7-chloro-N-[(3S,6R)-6-{5-[2-(trifluoromethoxy)ethoxy]-1,3,4-oxadiazol-2-yl}piperidin-3-yl]isoquinoline-3-carboxamide] gave an IC50 of 500 to 2000 nM. Work on `O=C(N[C@H]1CC[C@H](c2nnc(OCCOC(F)(F)F)o2)NC1)c1ccc(C(F)(F)F)c(F)c1` [Example 33, 3-fluoro-N-[(3S,6R)-6-{5-[2-(trifluoromethoxy)ethoxy]-1,3,4-oxadiazol-2-yl}piperidin-3-yl]-4-(trifluoromethyl)benzamide] yielded an IC50 of 500 to 2000 nM. For `O=C(N[C@H]1CC[C@H](c2nnc(OCCOC(F)(F)F)o2)NC1)c1ccc2cc(C(F)(F)F)ccc2n1` [Example 2, N-[(3S,6R)-6-{5-[2-(trifluoromethoxy)ethoxy]-1,3,4-oxadiazol-2-yl}piperidin-3-yl]-6-(trifluoromethyl)quinoline-2-carboxamide], the IC50 was 1 to 500 nM. `Cc1ccc(C(=O)N[C@H]2CC[C@H](c3nnc(OCCOC(F)(F)F)o3)NC2)cc1C` [Example 25, 3,4-dimethyl-N-[(3S,6R)-6-{5-[2-(trifluoromethoxy)ethoxy]-1,3,4-oxadiazol-2-yl}piperidin-3-yl]benzamide] gave an IC50 of 2000 to 15000 nM. Compound `O=C(N[C@H]1CC[C@H](c2nnc(OCCOC(F)(F)F)o2)NC1)c1ccc(OC(F)(F)F)c(Cl)c1` [Example 34, 3-chloro-4-(trifluoromethoxy)-N-[(3S,6R)-6-{5-[2-(trifluoromethoxy)ethoxy]-1,3,4-oxadiazol-2-yl}piperidin-3-yl]benzamide] has an IC50 of 500 to 2000 nM. Compound `O=C(N[C@@H]1CC[C@@H](c2nnc(OCCOC(F)(F)F)o2)NC1)c1ccc(Cl)c(Cl)c1` [Example 54, 3,4-dichloro-N-[(3R,6S)-6-[5-[2-(trifluoromethoxy)ethoxy]-1,3,4-oxadiazol-2-yl]-3-piperidyl]benzamide] has an IC50 of 500 to 2000 nM.
